Results as given in patent US20120034613A1, “Apparatus and Method for Testing Relationships Between Gene Expression and Physical Appearance of Skin” (NSE Products, Inc., priority 2010, published 2012).

System: EpidermFT™ Skin Model (EFT-400) full thickness skin cultures
Test: Affymetrix GeneChip HG U133 Plus 2.0 microarray global gene expression, agent-exposed vs untreated skin cultures
Format: cell-based, human
[1] = probe 206026_s_at, Table 3 skin structure
[2] = probe 209126_x_at, Table 3 skin structure
[3] = probe 209792_s_at, Table 3 skin structure

In the case of `OCc1ccccc1O[C@@H]1O[C@H](CO)[C@@H](O)[C@H](O)[C@H]1O` [Salicin, 2-(Hydroxymethyl)phenyl β-D-glucospyranoside], the “Direction PTPRG” value (probe 204944_at, 0.5%, 24 hr) is reported as “up”, the “Fold change PTPRG” value (probe 204944_at, 0.5%, 24 hr) is reported as 2.299 and the “Direction ITGB4” value (probe 204990_s_at, 0.5%, 24 hr) is reported as “down”. The “Fold change ITGB4” value (probe 204990_s_at, 0.5%, 24 hr) was 4.527, the “Direction FGFBP1” value (probe 205014_at, 0.5%, 24 hr) was “down” and the “Fold change FGFBP1” value (probe 205014_at, 0.5%, 24 hr) was 3.406. For the same compound, the “Direction TGFA” value (probe 205015_s_at, 0.5%, 24 hr) was “down”, the “Fold change TGFA” value (probe 205015_s_at, 0.5%, 24 hr) was 3.134 and the “Direction FGF13” value (probe 205110_s_at, 0.5%, 24 hr) was “up”. For the same compound, the “Fold change FGF13” value (probe 205110_s_at, 0.5%, 24 hr) was 2.158, the “Direction PTGS1” value (probe 205128_x_at, 0.5%, 24 hr) was “up” and the “Fold change PTGS1” value (probe 205128_x_at, 0.5%, 24 hr) was 2.327. The “Direction IL6” value (probe 205207_at, 0.5%, 24 hr) was “up”, the “Fold change IL6” value (probe 205207_at, 0.5%, 24 hr) was 3.197 and the “Direction LIF” value (probe 205266_at, 0.5%, 24 hr) was “up”. For the same compound, the “Fold change LIF” value (probe 205266_at, 0.5%, 24 hr) was 3.702, the “Direction ATP2B4” value (probe 205410_s_at, 0.5%, 24 hr) was “up” and the “Fold change ATP2B4” value (probe 205410_s_at, 0.5%, 24 hr) was 3.984. The “Direction KLK11” value (probe 205470_s_at, 0.5%, 24 hr) was “down”, the “Fold change KLK11” value (probe 205470_s_at, 0.5%, 24 hr) was 3.318 and the “Direction TAGLN” value (probe 205547_s_at, 0.5%, 24 hr) was “up”. The “Fold change TAGLN” value (probe 205547_s_at, 0.5%, 24 hr) was 2.426, the “Direction EREG” value (probe 205767_at, 0.5%, 24 hr) was “up” and the “Fold change EREG” value (probe 205767_at, 0.5%, 24 hr) was 2.487. The “Direction FGF7” value (probe 205782_at, 0.5%, 24 hr) was “up”, the “Fold change FGF7” value (probe 205782_at, 0.5%, 24 hr) was 3.158 and the “Direction KLK13” value (probe 205783_at, 0.5%, 24 hr) was “down”. For the same compound, the “Fold change KLK13” value (probe 205783_at, 0.5%, 24 hr) was 3.619, the “Direction CLGN” value (probe 205830_at, 0.5%, 24 hr) was “up” and the “Fold change CLGN” value (probe 205830_at, 0.5%, 24 hr) was 2.486. For the same compound, the “Direction KRT1” value (probe 205900_at, 0.5%, 24 hr) was “down”, the “Fold change KRT1” value (probe 205900_at, 0.5%, 24 hr) was 4.141 and the “Direction CREB5” value (probe 205931_s_at, 0.5%, 24 hr) was “up”. The “Fold change CREB5” value (probe 205931_s_at, 0.5%, 24 hr) was 9.909, the “Direction IL15” value (probe 205992_s_at, 0.5%, 24 hr) was “up” and the “Fold change IL15” value (probe 205992_s_at, 0.5%, 24 hr) was 4.326. For the same compound, the “Direction TNFAIP6” value (probe 206025_s_at, 0.5%, 24 hr) was “up”, the “Fold change TNFAIP6” value (probe 206025_s_at, 0.5%, 24 hr) was 3.182 and the “Direction TNFAIP6” value [1] was “up”. For the same compound, the “Fold change TNFAIP6” value [1] was 2.52, the “Direction DSC3” value (probe 206033_s_at, 0.5%, 24 hr) was “down” and the “Fold change DSC3” value (probe 206033_s_at, 0.5%, 24 hr) was 4.676. For the same compound, the “Direction BMP6” value (probe 206176_at, 0.5%, 24 hr) was “up”, the “Fold change BMP6” value (probe 206176_at, 0.5%, 24 hr) was 7.765 and the “Direction CDSN” value (probe 206193_s_at, 0.5%, 24 hr) was “down”. The “Fold change CDSN” value (probe 206193_s_at, 0.5%, 24 hr) was 11.11, the “Direction MAP3K13” value (probe 206249_at, 0.5%, 24 hr) was “up” and the “Fold change MAP3K13” value (probe 206249_at, 0.5%, 24 hr) was 2.252. For the same compound, the “Direction IL18” value (probe 206295_at, 0.5%, 24 hr) was “down”, the “Fold change IL18” value (probe 206295_at, 0.5%, 24 hr) was 19.31 and the “Direction CCL13” value (probe 206407_s_at, 0.5%, 24 hr) was “up”. The “Fold change CCL13” value (probe 206407_s_at, 0.5%, 24 hr) was 5.516, the “Direction F2RL1” value (probe 206429_at, 0.5%, 24 hr) was “down” and the “Fold change F2RL1” value (probe 206429_at, 0.5%, 24 hr) was 2.099. The “Direction IL24” value (probe 206569_at, 0.5%, 24 hr) was “up”, the “Fold change IL24” value (probe 206569_at, 0.5%, 24 hr) was 8.737 and the “Direction IL18R1” value (probe 206618_at, 0.5%, 24 hr) was “up”. The “Fold change IL18R1” value (probe 206618_at, 0.5%, 24 hr) was 2.865, the “Direction HAL” value (probe 206643_at, 0.5%, 24 hr) was “down” and the “Fold change HAL” value (probe 206643_at, 0.5%, 24 hr) was 55.87. For the same compound, the “Direction DGKI” value (probe 206806_at, 0.5%, 24 hr) was “up”, the “Fold change DGKI” value (probe 206806_at, 0.5%, 24 hr) was 2.74 and the “Direction IL11” value (probe 206924_at, 0.5%, 24 hr) was “up”. The “Fold change IL11” value (probe 206924_at, 0.5%, 24 hr) was 9.694, the “Direction IL8RB” value (probe 207008_at, 0.5%, 24 hr) was “down” and the “Fold change IL8RB” value (probe 207008_at, 0.5%, 24 hr) was 11.11. For the same compound, the “Direction DSC1” value (probe 207324_s_at, 0.5%, 24 hr) was “down”, the “Fold change DSC1” value (probe 207324_s_at, 0.5%, 24 hr) was 12.95 and the “Direction PTGES” value (probe 207388_s_at, 0.5%, 24 hr) was “up”. For the same compound, the “Fold change PTGES” value (probe 207388_s_at, 0.5%, 24 hr) was 2.768, the “Direction CSF3” value (probe 207442_at, 0.5%, 24 hr) was “up” and the “Fold change CSF3” value (probe 207442_at, 0.5%, 24 hr) was 11.09. The “Direction IL1RL1” value (probe 207526_s_at, 0.5%, 24 hr) was “up”, the “Fold change IL1RL1” value (probe 207526_s_at, 0.5%, 24 hr) was 9.09 and the “Direction LCE2B” value (probe 207710_at, 0.5%, 24 hr) was “down”. The “Fold change LCE2B” value (probe 207710_at, 0.5%, 24 hr) was 200.5, the “Direction LOR” value (probe 207720_at, 0.5%, 24 hr) was “down” and the “Fold change LOR” value (probe 207720_at, 0.5%, 24 hr) was 32.35. The “Direction KRT9” value (probe 208188_at, 0.5%, 24 hr) was “down”, the “Fold change KRT9” value (probe 208188_at, 0.5%, 24 hr) was 2.539 and the “Direction SPRR2B” value (probe 208539_x_at, 0.5%, 24 hr) was “down”. The “Fold change SPRR2B” value (probe 208539_x_at, 0.5%, 24 hr) was 5.554, the “Direction PDE3B” value (probe 208591_s_at, 0.5%, 24 hr) was “up” and the “Fold change PDE3B” value (probe 208591_s_at, 0.5%, 24 hr) was 2.851. The “Direction FADS1” value (probe 208962_s_at, 0.5%, 24 hr) was “up”, the “Fold change FADS1” value (probe 208962_s_at, 0.5%, 24 hr) was 2.889 and the “Direction KRT6A” value (probe 209125_at, 0.5%, 24 hr) was “down”. For the same compound, the “Fold change KRT6A” value (probe 209125_at, 0.5%, 24 hr) was 2.034, the “Direction KRT6B” value [2] was “down” and the “Fold change KRT6B” value [2] was 3.952. The “Direction TM4SF1” value (probe 209387_s_at, 0.5%, 24 hr) was “up”, the “Fold change TM4SF1” value (probe 209387_s_at, 0.5%, 24 hr) was 3.187 and the “Direction SPON1” value (probe 209437_s_at, 0.5%, 24 hr) was “up”. For the same compound, the “Fold change SPON1” value (probe 209437_s_at, 0.5%, 24 hr) was 2.36, the “Direction CALM1 /// CALM2 /// CALM3” value (probe 209563_x_at, 0.5%, 24 hr) was “down” and the “Fold change CALM1 /// CALM2 /// CALM3” value (probe 209563_x_at, 0.5%, 24 hr) was 2.029. For the same compound, the “Direction GATA3” value (probe 209602_s_at, 0.5%, 24 hr) was “down”, the “Fold change GATA3” value (probe 209602_s_at, 0.5%, 24 hr) was 15.7 and the “Direction CXCL2” value (probe 209774_x_at, 0.5%, 24 hr) was “up”. For the same compound, the “Fold change CXCL2” value (probe 209774_x_at, 0.5%, 24 hr) was 7.546, the “Direction CASP6” value (probe 209790_s_at, 0.5%, 24 hr) was “down” and the “Fold change CASP6” value (probe 209790_s_at, 0.5%, 24 hr) was 2.668. The “Direction KLK10” value [3] was “down”, the “Fold change KLK10” value [3] was 4.49 and the “Direction PKP3” value (probe 209873_s_at, 0.5%, 24 hr) was “down”. The “Fold change PKP3” value (probe 209873_s_at, 0.5%, 24 hr) was 4.615, the “Direction CALML3” value (probe 210020_x_at, 0.5%, 24 hr) was “down” and the “Fold change CALML3” value (probe 210020_x_at, 0.5%, 24 hr) was 11.27. The “Direction CSF2” value (probe 210229_s_at, 0.5%, 24 hr) was “up”, the “Fold change CSF2” value (probe 210229_s_at, 0.5%, 24 hr) was 16.55 and the “Direction FLT1” value (probe 210287_s_at, 0.5%, 24 hr) was “up”. The “Fold change FLT1” value (probe 210287_s_at, 0.5%, 24 hr) was 3.95, the “Direction HYAL1” value (probe 210619_s_at, 0.5%, 24 hr) was “down” and the “Fold change HYAL1” value (probe 210619_s_at, 0.5%, 24 hr) was 4.538.
